# Data taken from patent publication US4196288A, “Ergoline derivatives and a process for their preparation” (Societa Farmaceutici Italia S.p.A., priority 1976, dated 1980).
# Where two headings read alike, the source gives them in different places.
# Legend:
# nidation = assay: Nidation inhibition test in rats (anti-prolactin activity; absence of implantation sites); format: in vivo, rat (Sprague-Dowley); settings: Rattus norvegicus
# Excerpt: Prolactin is considered to be the only hypophysial hormone involved in the maintenance of the first part of pregnancy in rats.
# For the assessment of the anti-prolactin activity, the nidation inhibition test (M.C. Shelesnyak, Amer. J. Physiol., 180, 47, 1955) in rats was employed. For the ergoline derivatives this test is considered to be correlated with prolactin-inhibiting ability (K. Rezabek et al., J. Pharm. Sci., 64, 1045, 1976).
# Adult female rats, of the Sprague-Dowley strain, in proestrus were mated with fertile males and their vaginal smears were examined the next morning. The presence of spermatozoa was considered evidence of impregnation and onset of pregnancy (day 1).
# The compounds to be tested were administered orally or subcutaneously to groups of from six to eight rats on day 3. On day 14, the animals were sacrificed and the uterus was examined for the presence of implantation sites. The absence of implantation sites was taken as the criterion of anti-prolactin activity.
# Several doses were tested for the ED50 evaluation.
# As the reference standard Bromocriptine was used, this being well known both for its anti-nidation (E. Fluckiger and H. R. Wagner, Experientia, 24, 1130, 1968) and its anti-prolactin activity (C. L. Brooks and C. W. Welsch, Proc. Soc. Exp. Bio. Med., 146, 863, 1974).
# [1] = Emetic activity in dogs (intravenous); settings: dog, in vivo, male beagle dogs, i.v., observed for 1 hour after treatment, read-out: ≅ED50, emetic activity in dogs
# Excerpt: The emetic activity of some of the compounds was investigated by intravenous administration to male beagle dogs weighing 15-20 kg. […] Five to six animals per dose were employed for the ED50 evaluation.
# [2] = sc, rats, s.c., dosed on day 3, uterus examined on day 14, read-out: ≅ED50, nidation inhibition in rats (subcutaneous treatment)
# [3] = rats, os (oral), dosed on day 3, uterus examined on day 14, read-out: ≅ED50, nidation inhibition in rats (oral treatment)
SMILES,ED50 (nidation; [2]) [mg/kg],ED50 (nidation; [3]) [mg/kg],"ED50 (nidation; po, read-out: ≅ED50, nidation inhibition in rats (oral treatment)) [mg/kg]","ED50 (nidation; sc, read-out: ≅ED50, nidation inhibition in rats (subcutaneous treatment)) [mg/kg]",TD50 at 1 h [1] [mg/kg]
"CCCCCC(=O)OCC(=O)C1C[C@@H]2c3cccc4[nH]cc(c34)C[C@H]2N(C)C1 (stereo partly shown) [Compound 992, 8-Caproyloxyacetyl-6-methylergoline]",~1,~0.5,–,–,–
"CC(C)C[C@H]1C(=O)N2CCC[C@H]2[C@]2(O)O[C@](NC(=O)[C@@H]3C=C4c5cccc6[nH]c(Br)c(c56)C[C@H]4N(C)C3)(C(C)C)C(=O)N12 [Bromocriptine, reference compound]",–,–,~8,~1,~0.007
"CN1CC(C(=O)COC(=O)c2ccncc2)C[C@@H]2c3cccc4[nH]cc(c34)C[C@H]21 (stereo partly shown) [Compound 991, 8-Isonicotinoyloxyacetyl-6-methylergoline]",~2,~2,–,–,–
"CN1CC(C(=O)COC(=O)c2cncc(Br)c2)C[C@@H]2c3cccc4[nH]cc(c34)C[C@H]21 (stereo partly shown) [Compound 613, 6-Methyl-8-(5'-bromonicotinoyloxyacetyl)ergoline]",~0.5,~0.5,–,–,~0.045
"CN1CC(C(=O)COC(=O)C(C)(C)C)C[C@@H]2c3cccc4[nH]cc(c34)C[C@H]21 (stereo partly shown) [Compound 1011, 8-Pivaloyloxyacetyl-6-methylergoline]",~1,~0.5,–,–,–
"COc1cccc(OC)c1C(=O)OCC(=O)C1C[C@@H]2c3cccc4[nH]cc(c34)C[C@H]2N(C)C1 (stereo partly shown) [Compound 1013, 8-(2',6'-dimethoxybenzoyloxyacetyl)-6-methylergoline]",~1,~0.5,–,–,–
"CN1CC(C(=O)COC(=O)c2cccnc2)C[C@@H]2c3cccc4[nH]cc(c34)C[C@H]21 (stereo partly shown) [Compound 1012, 8-Nicotinoyloxyacetyl-6-methylergoline]",~1,~1,–,–,–
"CN1CC(C(=O)COC(=O)c2ccccc2)C[C@@H]2c3cccc4[nH]cc(c34)C[C@H]21 (stereo partly shown) [Compound 1000, 8-Benzoyloxyacetyl-6-methylergoline]",~1,~0.5,–,–,–
"CN1CC(C(=O)CO)C[C@@H]2c3cccc4[nH]cc(c34)C[C@H]21 (stereo partly shown) [Compound 615, 6-Methyl-8-hydroxyacetylergoline]",~0.5,~0.5,–,–,~0.025
"CN1CCN(CC(=O)C2C[C@@H]3c4cccc5[nH]cc(c45)C[C@H]3N(C)C2)CC1 (stereo partly shown) [Compound 1014, 6-Methyl-8-(4'-methylpiperazino)acetylergoline]",~1,~1,–,–,–
"CN1CC(C(=O)CN2CCCCC2)C[C@@H]2c3cccc4[nH]cc(c34)C[C@H]21 (stereo partly shown) [Compound 611, 6-Methyl-8-piperidinoacetylergoline]",~1,~0.5,–,–,–
